In one experiment the target is T1, EP4 receptors (Homo sapiens, UniProt P35408).
T1 construct: expressed in transfected cells; host or cells: HEK-293 (plasma membrane fraction)
Description: Radioligand binding, [3H]PGE2, HEK-293 cells expressing EP4. How it is done:
HEK-293 cells stably expressing the human or feline FP receptor, or EP1, EP2, or EP4 receptors were washed with TME buffer, scraped from the bottom of the flasks, and homogenized for 30 sec using a Brinkman PT 10/35 polytron. TME buffer was added to achieve a final 40 ml volume in the centrifuge tubes (the composition of TME is 100 mM TRIS base, 20 mM MgCl2, […]; 10N HCl is added to achieve a pH of 7.4).
The cell homogenate was centrifuged at 19000 r.p.m. for 20 min at 4° C. using a Beckman Ti-60 rotor. The resultant pellet was resuspended in TME buffer to give a final 1 mg/ml protein concentration, as determined by Biorad assay. Radioligand binding competition assays vs. [^3H-]17-phenyl PGF2 ? (5 nM) were performed in a 100 μl volume for 60 min. Binding reactions were started by adding plasma membrane fraction. The reaction was terminated by the addition of 4 ml ice-cold TRIS-HCl buffer and rapid filtration through glass fiber GF/B filters using a Brandel cell harvester. The filters were washed 3 times with ice-cold buffer and oven dried for one hour.
[^3H-] PGE2 (specific activity 180 Ci mmol) was used as the radioligand for EP receptors. [^3H] 17-phenyl PGF2 ? was employed for FP receptor binding studies. […] 17-phenyl PGF2 ? and non-specific binding determined with 10^−5M of unlabeled PGE2, or 17-phenyl PGF2 ? , according to receptor subtype studied.

The next experiment concerns the target T2, hDP/Gqs5 (Homo sapiens, UniProt Q13258).
T2 construct: expressed in transfected cells; host or cells: HEK-293(EBNA)
T2 sequence (Q13258 1-359): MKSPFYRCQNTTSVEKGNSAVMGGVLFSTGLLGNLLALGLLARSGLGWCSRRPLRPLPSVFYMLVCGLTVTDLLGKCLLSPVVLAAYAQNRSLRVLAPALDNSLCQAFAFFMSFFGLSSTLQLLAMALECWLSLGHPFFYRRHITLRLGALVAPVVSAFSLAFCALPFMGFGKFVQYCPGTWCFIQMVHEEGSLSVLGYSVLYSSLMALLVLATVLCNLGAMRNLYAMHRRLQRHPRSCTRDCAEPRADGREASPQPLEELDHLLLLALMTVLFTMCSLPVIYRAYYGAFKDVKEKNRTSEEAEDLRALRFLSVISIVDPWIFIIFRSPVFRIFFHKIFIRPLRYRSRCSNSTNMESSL
Description: FLIPR calcium signal, HEK-293(EBNA) cells. It counts as cell-based. How it is done:
(§1) HEK-293(EBNA) cells, stably expressing one type or subtype of recombinant human prostaglandin receptors (prostaglandin receptors expressed: hDP/Gqs5; hEP1; hEP2/Gqs5; hEP3A/Gqi5; hEP4/Gqs5; hFP; hiP; hTP), were cultured in 100 mm culture dishes in high-glucose DMEM medium containing 10% fetal bovine serum, 2 mM l-glutamine, 250 ? g/ml geneticin (G418) and 200 ? g/ml hygromycin B as selection markers, and 100 units/ml penicillin G, 100 ? g/ml streptomycin and 0.25 ? g/ml amphotericin B.
(§2) Cells were seeded at a density of 5×10^4 cells per well in Biocoat® Poly-D-lysine-coated black-wall, clear-bottom 96-well plates (Becton-Dickinson) and allowed to attach overnight in an incubator at 37° C. Cells were then washed two times with HBSS-HEPES buffer (Hanks Balanced Salt Solution without bicarbonate and phenol red, 20 mM HEPES, pH 7.4) using a Denley Cellwash plate washer (Labsystems). After 45 minutes of dye-loading in the dark, using the calcium-sensitive dye Fluo-4 AM at a final concentration of 2 ? M, plates were washed four times with HBSS-HEPES buffer to remove excess dye leaving 100 ? l in each well. Plates were re-equilibrated to 37° C. for a few minutes.
(§3) Cells were excited with an Argon laser at 488 nm, and emission was measured through a 510-570 nm bandwidth emission filter (FLIPR™, Molecular Devices, Sunnyvale, Calif.). Drug solution was added in a 50 ? l volume to each well to give the desired final concentration. The peak increase in fluorescence intensity was recorded for each well. On each plate, four wells each served as negative (HBSS-HEPES buffer) and positive controls (standard agonists: BW245C (hDP); PGE2 (hEP1; hEP2/Gqs5; hEP3A/Gqi5; hEP4/Gqs5); PGF2 ? (hFP); carbacyclin (hIP); U-46619 (hTP), depending on receptor). The peak fluorescence change in each drug-containing well was then expressed relative to the controls.
(§4) Compounds were tested in a high-throughput (HTS) or concentration-response (CoRe) format. In the HTS format, forty-four compounds per plate were examined in duplicates at a concentration of 10^−5 M. To generate concentration-response curves, four compounds per plate were tested in duplicates in a concentration range between 10^−5 and 10^−11 M. The duplicate values were averaged. In either, HTS or CoRe format each compound was tested on at least 3 separate plates using cells from different passages to give an n≧3.

The next experiment has as its target T3, hEP1 (Homo sapiens, UniProt P34995).
T3 construct: expressed in transfected cells; host or cells: HEK-293(EBNA)
T3 sequence (P34995 1-402): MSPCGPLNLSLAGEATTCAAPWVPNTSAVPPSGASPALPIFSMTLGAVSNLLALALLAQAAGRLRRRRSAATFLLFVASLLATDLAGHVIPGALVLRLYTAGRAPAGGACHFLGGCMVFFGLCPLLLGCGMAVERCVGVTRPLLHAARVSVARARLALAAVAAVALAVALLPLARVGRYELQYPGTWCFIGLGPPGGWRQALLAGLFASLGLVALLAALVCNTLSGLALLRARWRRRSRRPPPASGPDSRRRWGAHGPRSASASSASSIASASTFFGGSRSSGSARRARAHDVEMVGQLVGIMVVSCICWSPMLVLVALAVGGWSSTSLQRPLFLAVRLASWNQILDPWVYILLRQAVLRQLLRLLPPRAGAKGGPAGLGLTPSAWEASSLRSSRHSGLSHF
Kind of experiment: FLIPR calcium signal, HEK-293(EBNA) cells. It counts as cell-based. How it is done: as §1, §2, §3, §4

The target of the next experiment is T4, hEP2/Gqs5 (Homo sapiens, UniProt P43116).
T4 construct: expressed in transfected cells; host or cells: HEK-293(EBNA)
Kind of experiment: FLIPR calcium signal, HEK-293(EBNA) cells. The class given is cell-based. To be noted: value outside the parentheses; read-out: Ca2+ Signal-EC50 (nM) EP2. How it is done:
as §1, §2, §3, §4

The next experiment deals with T5, hEP3A/Gqi5 (Homo sapiens, UniProt P43115).
T5 construct: expressed in transfected cells; host or cells: HEK-293(EBNA)
T5 sequence (P43115 1-390): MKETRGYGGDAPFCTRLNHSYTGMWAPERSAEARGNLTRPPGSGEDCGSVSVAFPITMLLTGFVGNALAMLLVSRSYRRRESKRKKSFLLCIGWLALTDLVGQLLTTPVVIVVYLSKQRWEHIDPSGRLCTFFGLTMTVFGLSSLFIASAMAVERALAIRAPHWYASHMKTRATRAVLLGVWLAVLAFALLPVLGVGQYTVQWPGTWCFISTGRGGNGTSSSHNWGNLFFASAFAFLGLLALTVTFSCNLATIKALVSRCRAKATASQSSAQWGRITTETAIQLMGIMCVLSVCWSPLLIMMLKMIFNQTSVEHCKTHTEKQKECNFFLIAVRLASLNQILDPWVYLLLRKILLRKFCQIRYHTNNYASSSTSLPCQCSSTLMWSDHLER
Kind of experiment: FLIPR calcium signal, HEK-293(EBNA) cells. The class given is cell-based. To be noted: read-out: Ca2+ Signal-EC50 (nM) EP3. How it is done: as §1, §2, §3, §4

The next experiment deals with T6, hFP (Homo sapiens, UniProt P43088).
T6 construct: expressed in transfected cells; host or cells: HEK-293(EBNA)
Kind of experiment: FLIPR calcium signal, HEK-293(EBNA) cells. The class given is cell-based. How it is done:
as §1, §2, §3, §4

The next experiment addresses T7, hIP (Homo sapiens, UniProt P43119).
T7 construct: expressed in transfected cells; host or cells: HEK-293(EBNA)
Description: FLIPR calcium signal, HEK-293(EBNA) cells. The class given is cell-based. How it is done:
as §1, §2, §3, §4

For the next experiment, the target named is T8, hTP (Homo sapiens, UniProt P21731).
T8 construct: expressed in transfected cells; host or cells: HEK-293(EBNA)
T8 sequence (P21731 1-343): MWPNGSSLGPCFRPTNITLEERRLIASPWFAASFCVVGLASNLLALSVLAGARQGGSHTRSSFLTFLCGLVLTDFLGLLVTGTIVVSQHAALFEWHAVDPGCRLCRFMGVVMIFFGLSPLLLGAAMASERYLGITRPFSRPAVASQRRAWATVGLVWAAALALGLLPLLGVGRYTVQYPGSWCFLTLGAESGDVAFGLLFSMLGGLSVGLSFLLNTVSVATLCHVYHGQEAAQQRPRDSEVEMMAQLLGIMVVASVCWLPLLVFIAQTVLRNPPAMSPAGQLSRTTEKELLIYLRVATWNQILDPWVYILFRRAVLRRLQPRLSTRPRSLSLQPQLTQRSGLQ
Description: FLIPR calcium signal, HEK-293(EBNA) cells. The class given is cell-based. How it is done: as §1, §2, §3, §4

The next experiment has as its target EP2 (Homo sapiens, UniProt P43116). Description: Competition radioligand binding, [3H]PGE2, HEK 293 cells expressing EP2. The arrangement: expressed in transfected cells; host or cells: HEK 293 (membranes or whole cells). How it is done:
Competition binding experiments were performed in a medium containing Hank's balanced salt solution, Hepes 20 mM, pH 7.3, membranes (˜60 μg protein) or 2×10^5 cells from HEK 293 cells stably expressing human EP2 receptors, [^3H]PGE2 (10 nM) and various concentrations of test compounds in a total volume of 300 μl. Reaction mixtures were incubated at 23° C. for 60 min, and were filtered over Whatman GF/B filters under vacuum. Filters were washed three times with 5 ml ice-cold buffer containing 50 mM Tris/HCl (pH 7.3). Non-specific binding was estimated in the presence of excess unlabeled PGE2 (10 μM). Binding data fitted to the binding model for a single class of binding sites, using nonlinear regression analysis. IC50 values thus obtained were converted to Ki using the equation of Ki=(IC50/(1+[L]/KD) where [L] represents PGE2 concentration (10 nM) and KD the dissociation constant for [^3H]PGE2 at human EP2 receptors (40 nM). […]
The cell homogenate was centrifuged at 19000 r.p.m. for 20 min at 4° C. using a Beckman Ti-60 rotor. The resultant pellet was resuspended in TME buffer to give a final 1 mg/ml protein concentration, as determined by Biorad assay. […]
[^3H-] […] 17-phenyl PGF2 ? and non-specific binding determined with 10^−5M of unlabeled PGE2, or 17-phenyl PGF2 ? , according to receptor subtype studied.

For the next experiment, the target named is T9, hEP4/Gqs5 (Homo sapiens, UniProt P35408).
T9 construct: expressed in transfected cells; host or cells: HEK-293(EBNA)
Kind of experiment: FLIPR calcium signal, HEK-293(EBNA) cells. As to conditions: read-out: Ca2+ Signal-EC50 (nM) EP4. The class given is cell-based. How it is done:
as §1, §2, §3, §4

Sequence of EP2 (P43116 whole entry): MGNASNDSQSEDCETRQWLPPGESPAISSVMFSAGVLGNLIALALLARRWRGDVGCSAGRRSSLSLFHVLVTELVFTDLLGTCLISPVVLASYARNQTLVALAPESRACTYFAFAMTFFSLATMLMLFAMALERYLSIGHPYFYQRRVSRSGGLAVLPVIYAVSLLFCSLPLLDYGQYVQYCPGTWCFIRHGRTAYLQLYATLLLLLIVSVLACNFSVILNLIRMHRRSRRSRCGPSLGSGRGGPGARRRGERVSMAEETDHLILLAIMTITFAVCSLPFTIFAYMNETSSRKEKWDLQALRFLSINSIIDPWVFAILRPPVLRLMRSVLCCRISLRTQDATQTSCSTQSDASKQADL
T4 sequence (P43116 whole entry): as above
T1 sequence (P35408 whole entry): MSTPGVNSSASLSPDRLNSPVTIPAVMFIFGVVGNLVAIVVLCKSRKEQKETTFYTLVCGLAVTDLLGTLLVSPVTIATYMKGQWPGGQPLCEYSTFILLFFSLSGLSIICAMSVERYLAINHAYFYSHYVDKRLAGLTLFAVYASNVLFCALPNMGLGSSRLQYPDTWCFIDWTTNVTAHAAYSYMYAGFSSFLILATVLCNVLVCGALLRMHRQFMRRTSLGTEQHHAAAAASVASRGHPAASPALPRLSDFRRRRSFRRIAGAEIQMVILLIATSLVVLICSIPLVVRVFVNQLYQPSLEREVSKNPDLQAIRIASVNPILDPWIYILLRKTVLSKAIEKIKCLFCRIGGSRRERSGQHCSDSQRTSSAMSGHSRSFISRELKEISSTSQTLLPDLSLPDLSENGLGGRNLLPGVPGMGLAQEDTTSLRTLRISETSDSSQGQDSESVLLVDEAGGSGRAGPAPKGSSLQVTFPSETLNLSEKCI
T6 sequence (P43088 whole entry): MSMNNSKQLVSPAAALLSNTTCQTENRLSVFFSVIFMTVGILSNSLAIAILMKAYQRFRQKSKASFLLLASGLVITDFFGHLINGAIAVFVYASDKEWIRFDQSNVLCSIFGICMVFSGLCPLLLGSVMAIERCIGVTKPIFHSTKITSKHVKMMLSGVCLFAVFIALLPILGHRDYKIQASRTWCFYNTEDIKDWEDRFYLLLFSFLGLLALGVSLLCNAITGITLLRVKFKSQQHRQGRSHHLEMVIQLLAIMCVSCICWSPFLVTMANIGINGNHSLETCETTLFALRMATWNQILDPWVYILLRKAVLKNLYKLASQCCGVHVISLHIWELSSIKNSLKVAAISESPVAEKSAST
T9 sequence (P35408 whole entry): as the sequence (P35408 whole entry) above
T7 sequence (P43119 whole entry): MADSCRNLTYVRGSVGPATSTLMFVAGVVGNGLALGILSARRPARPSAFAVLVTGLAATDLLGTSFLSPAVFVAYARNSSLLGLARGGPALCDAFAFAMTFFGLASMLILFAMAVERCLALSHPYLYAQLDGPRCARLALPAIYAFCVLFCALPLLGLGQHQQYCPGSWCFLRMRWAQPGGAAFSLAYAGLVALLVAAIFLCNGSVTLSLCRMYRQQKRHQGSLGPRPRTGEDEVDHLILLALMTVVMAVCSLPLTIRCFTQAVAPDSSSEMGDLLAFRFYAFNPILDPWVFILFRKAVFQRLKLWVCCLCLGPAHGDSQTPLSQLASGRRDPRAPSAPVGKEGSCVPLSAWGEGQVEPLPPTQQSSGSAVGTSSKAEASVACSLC

As usually defined, the Ki is the dissociation constant of the complex between target and ligand, obtained from inhibition or displacement. A higher Ki goes with lower affinity. As a reminder, the EC50 is the concentration giving half of the maximal effect. Take `CCCCCC(O)c1ccc([C@@H]2[C@@H](C/C=C\CCCC(=O)O)[C@H](Cl)C[C@H]2Cl)cc1` (some centres unmarked) [Entry 2]: the Ki was found to be 1400 nM at EP4 receptors and 25 nM on EP2. The “Ca2+ Signal-EC50 (nM) DP” value on hDP/Gqs5 is on record as “notactive”. At hEP1, the “Ca2+ Signal-EC50 (nM) EP1” value is recorded as “notactive”. Also, the EC50 on hEP2/Gqs5 came to 15 nM; on hEP3A/Gqi5 it was 25 nM. Moreover, the “Ca2+ Signal-EC50 (nM) FP” value at hFP was “notactive”. The “Ca2+ Signal-EC50 (nM) IP” value at hIP is recorded as “notactive”. Moreover, on hTP, the “Ca2+ Signal-EC50 (nM) TP” value is recorded as “notactive”.
Turning to `CCCCCC(O)c1ccc([C@@H]2[C@@H](C/C=C\CCCC(=O)O)[C@H](Cl)C[C@@H]2Cl)cc1` (some centres unmarked) [compound 1], the Ki at EP4 receptors was determined as 2360 nM; at EP2, 504 nM. Moreover, the EC50 on hEP2/Gqs5 was 427 nM; on hEP3A/Gqi5, 449 nM; at hEP4/Gqs5, greater than 10000 nM.

These data come from patent US7491844B2, “Therapeutic cyclopentane derivatives” (Allergan, Inc., priority 2006, dated 2009).
